Like-named read-outs stand apart in the source and are kept apart here.
Columns and labels:
human plasma kallikrein = human plasma kallikrein (Homo sapiens, UniProt P03952); test: Kallikrein inhibition assay (FLINT) utilizing a quenched AMC peptide substrate Z-Gly-Pro-Arg-AMC; assay type: biochemical; settings: kinetic (KIN) reads, read-out: Kallikrein KIN Inh IC50
Text: Biological Example 2: Kallikrein Inhibition Assay Utilizing a Quenched AMC Peptide Substrate A fluorescence intensity (FLINT) based assay was used to monitor inhibition of human plasma kallikrein. The peptide substrate, Z-Gly-Pro-Arg-AMC (Purchased from Bachem; Catalog #I-1150) was chosen based on its relatively low KM for kallikrein which enables running the assay at lower substrate concentrations to control background fluorescence.
The Kallikrein FLINT assay was used with the following Z-Gly-Pro-Arg-AMC assay buffer: 50 mM Tris, pH 7.5, 100 mM NaCl, 5 mM CaCl2, 0.1 mg/mL BSA, 0.03% CHAPS. Assay buffer was prepared by mixing all ingredients fresh. 2× Z-Gly-Pro-Arg-AMC peptide substrate was prepared by diluting 10 mM stock into 1× assay buffer for a 100 μM working concentration (50 μM final concentration). The 2× kallikrein stock solution was prepared by diluting 14.76 μM stock in 1× assay buffer for a 4 nM working stock solution (2 nM final concentration).
Test compound(s) were run in an 11-point, 3-fold serial dilution with a final top compound concentration of 1 μM. Final DMSO in assay was 2%. Plasma kallikrein was pre-incubated for 30-minute with compound and then 50 μM substrate was added to initiate the reaction. The assay was run with kinetic (KIN) reads at 5 min intervals over 30 minutes. The time course was linear using 2 nM kallikrein greater than 30 minutes. More specifically, the assay was run as follows: • 100 nL of 0.1 mM test compound was dispensed into black 384-well non-binding Greiner BioOne 784900 plate for 1 μM final concentration; • 5 μL of 1× assay buffer was dispensed to columns 24 (low control) and 5 μL 2× human kallikrein enzyme solution was dispensed to columns 1-23 (column 23 high control); • the plate was centrifuged with a “cover” plate at 500 rpm for 1 min • the plate was pre-incubated for 30 minutes at room temperature with plate covered; • 5 μL of 2× Z-Gly-Pro-Arg-AMC peptide substrate was dispensed into the entire plate, columns 1-24; • the plate was centrifuged with a “cover” plate at 500 rpm for 1 min; • the plate was read monitoring fluorescence intensity on the BMG PHERAStar at room temperature, using fluorescence module 340 nm/440 nm.
(§1) Percent inhibition (IC50) curves were generated per compound tested, and data was analyzed using a 4-parameter logistic fit using GeneData Screener. The relative fluorescence unit (RFU) values were normalized to percent inhibition using the following equation:
% inhibition=((HC−LC)−(compound−LC)/(HC−LC))*100 where LC—low control=mean signal of […] or 100% inhibition of human kallikrein enzyme; HC—high control=mean signal of […]+Z-Gly-Pro-Arg-AMC peptide substrate with DMSO only.
(§2) An 11-point dose response curve for the test compound(s) was generated using GENDATA to determine IC50 value based on the following equation:
(§3) Y=Bottom+(Top−Bottom)/(1+10^((log IC50−X)*HillSlope)) where Y is the % inhibition in the presence of X inhibitor concentration, Top=high control=mean signal of human kallikrein enzyme+Z-Gly-Pro-Arg-AMC peptide substrate with DMSO only; Bottom=low control−mean signal of no human kallikrein enzyme or 100% inhibition of human kallikrein enzyme; HillSlope−Hill coefficient; and IC50=concentration of compound with 50% inhibition in relation to top/high control.

Factor XIa = Factor XIa (Homo sapiens, UniProt P03951); test: Factor XIa inhibition assay (FLINT) utilizing a fluorophore-quencher pair peptide substrate 5Fam-[…]-K5Tamra; assay type: biochemical; settings: kinetic (KIN) reads; values in nM; read-out: FXIa KIN Inh IC50
Factor XIa, sequence (P03951 388-625 limits assumed): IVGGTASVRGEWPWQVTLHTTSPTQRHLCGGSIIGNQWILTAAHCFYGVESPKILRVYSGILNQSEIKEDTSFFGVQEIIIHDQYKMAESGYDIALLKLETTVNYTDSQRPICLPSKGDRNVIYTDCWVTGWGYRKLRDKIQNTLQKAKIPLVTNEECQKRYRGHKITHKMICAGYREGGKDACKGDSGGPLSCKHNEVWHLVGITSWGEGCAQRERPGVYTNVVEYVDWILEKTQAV
Factor XIa, sequence (P03951 19-387 partner limits assumed): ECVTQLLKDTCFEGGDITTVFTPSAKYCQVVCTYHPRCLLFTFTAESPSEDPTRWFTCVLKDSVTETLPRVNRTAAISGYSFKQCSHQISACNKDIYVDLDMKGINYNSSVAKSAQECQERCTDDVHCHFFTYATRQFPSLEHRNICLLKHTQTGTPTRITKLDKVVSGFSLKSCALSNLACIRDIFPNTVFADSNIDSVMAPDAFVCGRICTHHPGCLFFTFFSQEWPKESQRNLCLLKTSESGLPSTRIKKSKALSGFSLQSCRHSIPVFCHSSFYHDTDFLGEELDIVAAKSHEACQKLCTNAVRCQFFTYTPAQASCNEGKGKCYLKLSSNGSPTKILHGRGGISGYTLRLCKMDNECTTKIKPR
Text: Biological Example 1: Factor XIa Inhibition Assay Utilizing a Fluorophore-Quencher Pair Peptide Substrate A fluorescence intensity (FLINT) based assay was used to monitor inhibition of Factor XIa. The peptide substrate, 5Fam-[…]-K5Tamra (purchased from New England Peptide) was chosen based on the FXI sequence. Conversion of zymogen FXI to its activated form, FXIa, occurs by proteolytic cleavage by […] at two sites, Arg146 and Arg180. The custom peptide used in this assay was based on the Arg146 cleavage site of FXI. The peptide substrate was designed with a fluorophore-quencher pair, where the fluorescence is quenched until FXIa cleaves the 8-mer peptide after the Arg residue.
The Factor XIa FLINT assay was used with the following 5Fam-[…]-K5Tamra assay buffer: 50 mM Tris, pH 7.5, 100 mM NaCl, 5 mM CaCl2, 0.1 mg/mL BSA, 0.03% CHAPS. Assay buffer was prepared by mixing all ingredients fresh. 5Fam-[…]-K5Tamra peptide substrate was first prepared at 10 mM in 100% DMSO, then diluted to 3 mM in 100% DMSO. Assay buffer was then added directly to the 3 mM stock of substrate to prepare the 30 μM 2× working concentration (15 μM final concentration). The 2× Factor XIa stock solution was prepared by diluting 6.562 μM stock in 1× assay buffer for a […].
Test compound(s) were run in an 11-point, 3-fold serial dilution with a final top compound concentration of 100 nM. Final DMSO in assay was 2%. FXIa was preincubated with compound for 30-minutes and then substrate was added to initiate the reaction. The assay was run with kinetic (KIN) reads at 5 min intervals over 30 minutes. […] More specifically, the assay was run as follows: • 100 nL of 0.01 mM test compound was dispensed into black 384-well non-binding Greiner BioOne 784900 plate for 0.1 μM final concentration; • 5 μL of 1× assay buffer was dispensed to column 24 (low control) and 5 μL 2× Factor XIa solution was dispensed to columns 1-23 (column 23 high control); • the plate was centrifuged with a “cover” plate at 500 rpm for 1 min • the plate was pre-incubated for 30 minutes at room temperature with plate covered; • 5 μL of 2×5Fam-[…]-K5Tamra peptide substrate was dispensed into the entire plate, columns 1-24; • the plate was centrifuged with a “cover” plate at 500 rpm for 1 min; • the plate was read monitoring fluorescence intensity on the BMG PHERAStar at room temperature, using fluorescence module 485 nm/520 nm.
as §1
% inhibition=((HC−LC)−(compound−LC)/(HC−LC))*100 where LC−low control=mean signal of no Factor XIa or 100% inhibition of Factor XIa; HC−high control=mean signal of Factor XIa+5Fam-[…]-K5Tamra peptide substrate with DMSO only.
as §2
as §3, with “Factor XIa+5Fam-[…]-K5Tamra” for “human kallikrein enzyme+Z-Gly-Pro-Arg-AMC”, “Factor XIa” for “human kallikrein enzyme”, “Factor XIa;” for “human kallikrein enzyme;”

human plasma kallikrein, sequence (P03952 391-638 limits assumed): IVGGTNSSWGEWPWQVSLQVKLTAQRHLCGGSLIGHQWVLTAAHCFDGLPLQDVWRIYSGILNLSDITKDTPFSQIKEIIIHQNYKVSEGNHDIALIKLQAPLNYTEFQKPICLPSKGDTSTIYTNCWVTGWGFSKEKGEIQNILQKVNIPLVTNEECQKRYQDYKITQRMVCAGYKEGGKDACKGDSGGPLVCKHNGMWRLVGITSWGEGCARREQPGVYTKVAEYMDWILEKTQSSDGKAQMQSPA
human plasma kallikrein, sequence (P03952 20-390 partner limits assumed): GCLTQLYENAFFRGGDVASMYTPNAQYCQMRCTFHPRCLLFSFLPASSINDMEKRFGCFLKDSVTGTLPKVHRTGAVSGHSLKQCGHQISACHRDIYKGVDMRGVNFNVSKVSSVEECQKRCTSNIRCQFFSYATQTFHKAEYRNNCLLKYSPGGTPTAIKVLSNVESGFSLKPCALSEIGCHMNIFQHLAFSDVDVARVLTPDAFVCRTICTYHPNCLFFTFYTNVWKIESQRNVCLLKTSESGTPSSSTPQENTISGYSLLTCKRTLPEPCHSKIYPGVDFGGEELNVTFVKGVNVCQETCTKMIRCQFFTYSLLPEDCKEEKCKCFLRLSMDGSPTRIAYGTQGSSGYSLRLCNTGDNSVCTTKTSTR

| IC50 (human plasma kallikrein; unit μM) | IC50 (Factor XIa) | IC50 (human plasma kallikrein; values in nM) | SMILES |
| --- | --- | --- | --- |
| > 1 µM | > 100 nM | – | Nc1ccc(-c2cnc([C@@H]3CC4(CC4)c4cc(-c5cc(Cl)ccc5-n5cnnn5)cc(=O)n43)[nH]2)c(F)n1 (single isomer, unassigned) [Example 4] |
| – | 0.6 nM | 0.0033 µM | [2H]C([2H])([2H])OC(=O)Nc1ccc(-c2cnc(C3CC4(CC4)c4nc(-c5c(-n6cnnn6)ccc(Cl)c5F)cc(=O)n43)[nH]2)cc1 (single isomer, unassigned) [Example 72, Methyl-d3 (S*)-(4-(2-(2′-(3-Chloro-2-fluoro-6-(1H-tetrazol-1-yl)phenyl)-4′-oxo-6′,7′-dihydro-4′H-spiro[cyclopropane-1,8′-pyrrolo[1,2-a]pyrimidin]-6′-yl)-1H-imidazol-5-yl)phenyl)carbamate] |
| 9.1 µM | ~575 nM | – | C[C@H]1C[C@@H](c2ncc(-c3ccc(N)nc3Cl)[nH]2)n2c1nc(-c1c(-n3cnnn3)ccc(Cl)c1F)cc2=O (single isomer, unassigned) [Example 140] |
| 2.2 µM | 346 nM | – | Cc1cc(-c2cnc([C@@H]3C[C@@H](C)c4cc(-c5c(-n6cnnn6)ccc(Cl)c5F)cc(=O)n43)[nH]2)ccn1 (stereo in doubt) [Example 41, (1*R,3*S)-7-(3-Chloro-2-fluoro-6-(1H-tetrazol-1-yl)phenyl)-1-methyl-3-(5-(2-methylpyridin-4-yl)-1H-imidazol-2-yl)-2,3-dihydroindolizin-5(1H)-one] |
| – | 78.1 nM | 0.447 µM | C[C@H]1C[C@@H](c2ncc(-c3ccc(=O)[nH]c3)[nH]2)n2c1cc(-c1c(-n3cnnn3)ccc(Cl)c1F)cc2=O [Example 16, (1S,3S)-7-(3-Chloro-2-fluoro-6-(1H-tetrazol-1-yl)phenyl)-1-methyl-3-(5-(6-oxo-1,6-dihydropyridin-3-yl)-1H-imidazol-2-yl)-2,3-dihydroindolizin-5(1H)-one] |
| – | 0.8 nM | 0.0492 µM | Cc1nc(N)ccc1-c1cnc([C@@H]2C[C@H](C)c3cc(-c4c(-n5cnnn5)ccc(Cl)c4F)cc(=O)n32)[nH]1 (relative stereo) [Example 51, (1*S,3*S)-3-(5-(6-Amino-2-methylpyridin-3-yl)-1H-imidazol-2-yl)-7-(3-chloro-2-fluoro-6-(1H-tetrazol-1-yl)phenyl)-1-methyl-2,3-dihydroindolizin-5(1H)-one] |
| – | 1.2 nM | 0.0168 µM | Nc1ccc(-c2cnc([C@@H]3CC4(CC4)c4nc(-c5c(-n6cnnn6)ccc(Cl)c5F)cc(=O)n43)[nH]2)c(F)n1 [Example 134, (S)-6′-(5-(6-Amino-2-fluoropyridin-3-yl)-1H-imidazol-2-yl)-2′-(3-chloro-2-fluoro-6-(1H-tetrazol-1-yl)phenyl)-6′,7′-dihydro-4′H-spiro[cyclopropane-1,8′-pyrrolo[1,2-a]pyrimidin]-4′-one] |
| – | 25.4 nM | 0.27 µM | C[C@H]1C[C@@H](c2ncc(-c3cc(N)ncc3F)[nH]2)n2c1cc(-c1c(-n3cnnn3)ccc(Cl)c1F)cc2=O [Example 19, (1S,3S)-3-(5-(2-Amino-5-fluoropyridin-4-yl)-1H-imidazol-2-yl)-7-(3-chloro-2-fluoro-6-(1H-tetrazol-1-yl)phenyl)-1-methyl-2,3-dihydroindolizin-5(1H)-one] |
| – | 1.2 nM | 0.1 µM | Nc1ccc(-c2cnc(C3CCCc4cc(-c5c(-n6cnnn6)ccc(Cl)c5F)cc(=O)n43)[nH]2)c(F)n1 (single isomer, unassigned) [Cmpd (III), (*S)-6-(5-(6-amino-2-fluoropyridin-3-yl)-1H-imidazol-2-yl)-2-(3-chloro-2-fluoro-6-(1H-tetrazol-1-yl)phenyl)-6,7,8,9-tetrahydro-4H-quinolizin-4-one] |
| > 10 µM | – | – | C[C@H]1CC(c2ncc(-c3ccnc(CN)c3)[nH]2)n2c1cc(-c1c(-n3cnnn3)ccc(Cl)c1F)cc2=O (stereo in doubt) [Example 39, (1*S,3*S)-3-(5-(2-(Aminomethyl)pyridin-4-yl)-1H-imidazol-2-yl)-7-(3-chloro-2-fluoro-6-(1H-tetrazol-1-yl)phenyl)-1-methyl-2,3-dihydroindolizin-5(1H)-one] |
| 3.4 µM | – | – | C[C@H]1C[C@@H](c2ncc(-c3ccc(N)nc3Cl)[nH]2)n2c1cc(-c1c(-n3cnnn3)ccc(Cl)c1F)cc2=O (relative stereo) [Example 57, (1*S,3*S)-3-(5-(6-Amino-2-chloropyridin-3-yl)-1H-imidazol-2-yl)-7-(3-chloro-2-fluoro-6-(1H-tetrazol-1-yl)phenyl)-1-methyl-2,3-dihydroindolizin-5(1H)-one] |
| – | – | 0.0116 µM | C[C@H]1C[C@@H](c2ncc(-c3ccc(N)nc3Cl)[nH]2)n2c1cc(-c1c(-n3cnnn3)ccc(Cl)c1F)cc2=O [Example 59, (1S,3S)-3-(5-(6-Amino-2-chloropyridin-3-yl)-1H-imidazol-2-yl)-7-(3-chloro-2-fluoro-6-(1H-tetrazol-1-yl)phenyl)-1-methyl-2,3-dihydroindolizin-5(1H)-one] |
| – | – | 0.0976 µM | O=c1cc(-c2c(-n3cnnn3)ccc(Cl)c2F)nc2n1C(c1ncc(-c3ccnc(C4(O)CC4)c3F)[nH]1)CC21CC1 (single isomer, unassigned) [Example 75, (R*)-2′-(3-Chloro-2-fluoro-6-(1H-tetrazol-1-yl)phenyl)-6′-(5-(3-fluoro-2-(1-hydroxycyclopropyl)pyridin-4-yl)-1H-imidazol-2-yl)-6′,7′-dihydro-4′H-spiro[cyclopropane-1,8′-pyrrolo[1,2-a]pyrimidin]-4′-one] |

Source: US20230097157A1, “Bicyclic Pyridin-2-one and pyrimidin-4-one Derivatives Useful As a Factor XIa Inhibitors” (Janssen Pharmaceutica NV, priority 2021, published 2023)
